Where two headings read alike, the source gives them in different places.
Tests used:
HIV-1LAl = experiment: Anti-HIV (in PBM cells) assay, reverse transcriptase readout; format: cell-based
Experimental: Anti-HIV-1 activity of the compounds was determined in human peripheral blood mononuclear (PBM) cells as described previously (Schinazi […]., Cannon D., Mathis R., Lloyd R. M. Jr., […]., St. Clair M., Wilson J., Furman P. A., Painter G., Choi […]. Antimicrob. Agents Chemother. 1992, 36, 2423; Schinazi […]., Cannon D., Xie […]., Smith G., Hahn E. Antimicrob. Agents Chemother. 1990, 34, 1061). Stock solutions ([…]) of the compounds were prepared in sterile DMSO and then diluted to the desired concentration in growth medium. […] Virus obtained from the cell supernatant was quantified on day 6 after infection by a reverse transcriptase assay using (rA)n.(dT)12.18 as template-primer. […] AZT was included as positive control. The antiviral EC50 and EC90 were obtained from the concentration-response curve using the median effective method described previously (Chou […]. Enzyme Regul. 1984, 22, 27-55; Belen'kii M. S. & Schinazi R. F. Antiviral Res. 1994, 25, 1-11).

HIV-1RF = experiment: Anti-HIV (in MT-2 cells) assay, viral RNA accumulation; format: cell-based; conditions: EC90, MT-2 cells, read-out: Anti-HIV-1 activity in different cells (EC90, μM) MT-2
Experimental: (§1) In a second antiviral testing system, the potency of the compounds was determined by measurement of viral RNA accumulation in HIV-1RF infected MT-2 cells (Bacheler L T, Paul M, Otto M J, Jadhav P K, Stone B A & Miller J A (1994) An assay for HIV RNIn infected cell lysates, and its use for rapid evaluation of antiviral efficacy. Antivir. Chem. Chemother. 5:111–121). The virus titer was established to determine the dilution producing 15 to 30 ng/RNA per well of HIV RNIn 3 days of infection. HIV-1 RNA was quantified using biotinylated capture and alkaline phosphatase-derivatized reporter oligonucleotides as described previously (Charvet A-S, Camplo M, Faury P, Graciet J C, Mourier N, Chermann J C & Kraus J L (1994) Inhibition of human immunodeficiency virus type 1 replication by phosphonoformate- and phosphonoacetate-2′,3′-dideoxy-3′-thiacytidine conjugates. J. Med. Chem. 37:2216–2223). In a third system, the effect of analogs on the replication of HIV-1NL4-3 was determined via the InterCompany Consortium consensus p24 assay as previously described (Jadhav P K & MacKay M F (1997) Cyclic urea amide: HIV-1 protease inhibitors with low nanomolar potency against both wild types and protease inhibitor resistant mutants of HIV. J. Med. Chem. 40:181–190). Recombinant viruses were recovered by transfecting the appropriate NL4-3 plasmid by lipofection. Virus stocks recovered 7 to 10 days post-transfection were titered on MT-4 cells to determine if the dilution produced 1,000 to 3,000 ng p24 in 4 days. This dilution was then used in drug susceptibility assays, where drug was added 24 h post infection of cells, and p24 quantified by ELISA 3 days later.

HIV-1NL4-3 = experiment: Anti-HIV assay in MT-4 cells, consensus p24 assay; format: cell-based
Experimental: as §1

[1] = Cytotoxicity assay in PBM cells; format: cell-based, human; conditions: human, human PBM cells
Experimental: (§2) The toxicity of the compounds was assessed in Vero, human PBM, CEM (human lymphoblastoid), MT-2, and HepG2 cells, as described previously (Schinazi […]., Cannon D. L., Xie […]., Smith […]. […] Cycloheximide was included as positive cytotoxic control, and untreated cells exposed to solvent were included as negative controls. The cytotoxicity IC50 was obtained from the concentration-response curve using the median effective method described previously (Chou […]. […] Belen'kii M. S. & Schinazi R. F.

[2] = Cytotoxicity assay in CEM cells; format: cell-based, human; conditions: human, CEM lymphoblastoid cells
Experimental: as §2

[3] = Cytotoxicity assay in Vero cells; format: cell-based; conditions: African green monkey
Experimental: as §2

[4] = Cytotoxicity assay in MT-2 cells; format: cell-based; conditions: human
Experimental: as §2

[5] = Cytotoxicity assay in HepG2 cells; format: cell-based; conditions: human
Experimental: as §2

human PBM cells = experiment: Cytotoxicity assay in PBM cells; format: cell-based; conditions: Table 2, read-out: Cytotoxicity in different cells (IC50, μM) PBM
Experimental: as §2

[6] = test system: CEM (human lymphoblastoid) cells; experiment: Cytotoxicity assay in CEM cells; format: cell-based; conditions: Table 2, read-out: Cytotoxicity in different cells (IC50, μM) CEM
Experimental: as §2

Vero cells = experiment: Cytotoxicity assay in Vero cells; format: cell-based; conditions: Table 2, read-out: Cytotoxicity in different cells (IC50, μM) Vero
Experimental: as §2

MT-2 cells = experiment: Cytotoxicity assay in MT-2 cells; format: cell-based; conditions: Table 2, read-out: Cytotoxicity in different cells (IC50, μM) MT-2
Experimental: as §2

HepG2 cells = experiment: Cytotoxicity assay in HepG2 cells; format: cell-based; conditions: Table 2, read-out: Cytotoxicity in different cells (IC50, μM) HepG2
Experimental: as §2

[7] = Human immunodeficiency virus 1, PBMC, Table 1, read-out: Anti-HIV-1 activity in different cells (EC90, μM) PBM
[8] = Human immunodeficiency virus 1, MT2, Table 1
[9] = Human immunodeficiency virus 1, MT4, Table 1, read-out: Anti-HIV-1 activity in different cells (EC90, μM) MT-4
[10] = Table 1, read-out: Cytotoxicity in different cells (IC50, μM) PBM
[11] = Table 1, read-out: Cytotoxicity in different cells (IC50, μM) CEM
[12] = Table 1, read-out: Cytotoxicity in different cells (IC50, μM) Vero
[13] = Table 1, read-out: Cytotoxicity in different cells (IC50, μM) MT-2
[14] = Table 1, read-out: Cytotoxicity in different cells (IC50, μM) HepG2
[15] = Human immunodeficiency virus 1, PBMC, Table 2, read-out: Anti-HIV-1 activity in different cells (EC90, μM) PBM
[16] = Human immunodeficiency virus 1, MT2, Table 2
[17] = Human immunodeficiency virus 1, MT4, Table 2, read-out: Anti-HIV-1 activity in different cells (EC90, μM) MT-4
[18] = Table 2, read-out: Cytotoxicity in different cells (IC50, μM) PBM
[19] = Table 2, read-out: Cytotoxicity in different cells (IC50, μM) CEM
[20] = Table 2, read-out: Cytotoxicity in different cells (IC50, μM) Vero
[21] = Table 2, read-out: Cytotoxicity in different cells (IC50, μM) MT-2
[22] = Table 2, read-out: Cytotoxicity in different cells (IC50, μM) HepG2

Structure (SMILES)	EC90 (HIV-1LAl; [7]) [µM]	EC90 (HIV-1RF; [8]) [µM]	EC90 (HIV-1NL4-3; [9]) [µM]	IC50 [1, 10] [µM]	IC50 [2, 11] [µM]	IC50 [3, 12] [µM]	IC50 [4, 13] [µM]	IC50 [5, 14] [µM]	further results
O=C(Nc1nc(=O)n([C@H]2CC[C@@H](CO)O2)cc1F)c1cccc(Br)c1 [Compound 16, β-D-N^4-(3-Bromobenzoyl)-2′,3′-dideoxy-5-fluorocytidine]	0.145	0.51	0.42	> 100	40.6	80.6	> 50	> 100	–
O=C(Nc1nc(=O)n([C@H]2CC[C@@H](CO)O2)cc1F)c1ccc(I)cc1 [Compound 10, β-D-2′,3′-Dideoxy-5-fluoro-N^4-(4-iodobenzoyl)cytidine]	0.019	0.025	0.17	> 100	> 100	> 100	> 50	> 100	–
O=C(Nc1nc(=O)n([C@H]2CC[C@@H](CO)O2)cc1F)c1ccc(Cl)cc1 [Compound 12, β-D-N^4-(4-chlororobenzoyl)-2′,3′-dideoxy-5-fluorocytidine]	0.02	0.22	0.37	> 100	33.4	> 100	> 50	7.3	–
O=C(Nc1nc(=O)n([C@H]2CC[C@@H](CO)O2)cc1F)c1ccc([N+](=O)[O-])cc1 [Compound 18, β-D-2′,3′-Dideoxy-5-fluoro-N^4-(4-nitrobenzoyl)cytidine]	0.18	0.4	0.3	> 100	> 100	> 100	> 50	> 100	–
O=C(Nc1nc(=O)n([C@H]2CC[C@@H](CO)O2)cc1F)c1ccc(F)cc1 [Compound 11, β-D-2′,3′-Dideoxy-5-fluoro-N^4-(4-fluorobenzoyl)cytidine]	0.027	0.32	0.61	> 100	45.7	> 100	> 50	> 100	–
O=C(Nc1nc(=O)n([C@H]2C=C[C@@H](CO)O2)cc1F)c1ccc(I)cc1 [Compound 38, β-D-2′,3′-Didehydro-2′,3′-dideoxy-5-fluoro-N^4-(4-iodobenzoyl)cytidine]	–	–	–	–	–	–	–	–	EC90 (HIV-1LAl; [15]): 0.76 µM; EC90 (HIV-1RF; [16]): 0.31 µM; EC90 (HIV-1NL4-3; [17]): 0.85 µM; IC50 [1, 18]: 57 µM; IC50 [2, 19]: 11.4 µM; IC50 [3, 20]: 100 µM; IC50 [4, 21]: > 50 µM; IC50 [5, 22]: > 100 µM
O=C(Nc1nc(=O)n([C@H]2C=C[C@@H](CO)O2)cc1F)c1ccc(F)cc1 [Compound 35, β-D-2′,3′-Didehydro-2′,3′-dideoxy-5-fluoro-N^4-(4-fluorobenzoyl)cytidine]	–	–	–	–	–	–	–	–	EC90 (HIV-1LAl; [15]): 1.08 µM; EC90 (HIV-1RF; [16]): 0.88 µM; EC90 (HIV-1NL4-3; [17]): 7.2 µM; IC50 [1, 18]: 53.1 µM; IC50 [2, 19]: 51.3 µM; IC50 [3, 20]: 83.1 µM; IC50 [4, 21]: > 50 µM; IC50 [5, 22]: 93.6 µM
O=C(Nc1nc(=O)n([C@H]2C=C[C@@H](CO)O2)cc1F)c1ccc(Br)cc1 [Compound 37, β-D-N^4-(4-Bromobenzoyl)-2,3′-didehydro-2′,3′-dideoxy-5-fluorocytidine]	–	–	–	–	–	–	–	–	EC90 (HIV-1LAl; [15]): 1.4 µM; EC90 (HIV-1RF; [16]): 0.14 µM; EC90 (HIV-1NL4-3; [17]): 5.2 µM; IC50 [1, 18]: 53 µM; IC50 [2, 19]: 24 µM; IC50 [3, 20]: 40.5 µM; IC50 [4, 21]: > 50 µM; IC50 [5, 22]: > 100 µM
O=C(Nc1nc(=O)n([C@H]2CC[C@@H](CO)O2)cc1F)c1cccc(F)c1 [Compound 14, β-D-2′,3′-Dideoxy-5-fluoro-M-(3-fluorobenzoyl)cytidine]	0.106	0.46	0.43	> 100	80.8	> 100	> 50	> 100	–
CCCc1ccc(C(=O)Nc2nc(=O)n([C@H]3CC[C@@H](CO)O3)cc2F)cc1 [Compound 26, β-D-2′,3′-Dideoxy-5-fluoro-N^4-(4-n-propylbenzoyl)cytidine]	0.017	0.1	0.22	> 100	> 100	> 100	> 50	> 100	–
O=C(Nc1nc(=O)n([C@H]2C=C[C@@H](CO)O2)cc1F)c1cccnc1 [Compound 55, β-D-2, 3′-Didehydro-2′,3′-dideoxy-5-fluoro-N^4-nicotinoylcytidine]	–	–	–	–	–	–	–	–	EC90 (HIV-1LAl; Table 2, read-out: Anti-HIV-1 activity in different cells (EC90, μM) PBM): 42.3 µM; EC90 (HIV-1RF; Table 2): 29 µM; IC50 (human PBM cells): 13.8 µM; IC50 [6]: 6.7 µM; IC50 (Vero cells): 13.1 µM; IC50 (MT-2 cells): > 50 µM; IC50 (HepG2 cells): 10.3 µM
